US7011816B2, “Labeling targeting agents with gallium-68 and gallium-67” (Immunomedics, Inc., priority 2001, dated 2006)
*1 amine or outer side, *2 acyl side, *3 side chain or, on linkers, in order; H or OH if unused. Where a SMILES comes first, the peptide text is derived from it. Side-chain parts run from the residue outwards. [ ]: non-standard residue; d: D form. The star is where a group is joined. DOTA = O=C(O)CN1CCN(CC(=O)O)CCN(CC(=O)*)CCN(CC(=O)O)CC1; NH(2-(imidazol-4-yl)ethyl) = c1ncc(CCN*)[nH]1; Suc = O=C(CCC(=O)[*:2])[*:1]

Columns and labels:
Parameters in all cases: species or system nude mice
[1] = tested on: GW39 human colon tumor xenografts; experiment: in vivo; conditions: mouse
Procedure: (§1) The bispecific antibody I-125-hMN-14×679-F(ab′)2 (anti-CEA×anti-HSG, radiolabeled with iodine-125 as a tracer radionuclide) was injected into nude mice bearing GW39 human colon tumor xenografts. Twenty-four hours later, the Ga-67-IMP 241 peptide, prepared according to the method described in Example # 4, was injected. At specified times post-injection, five animals per time-point were sacrificed and tissues collected and counted for both I-125 and Ga-67 radioactivity, using dual energy windows for each respective radionuclide. Additionally, biodistribution of Ga-67-IMP 241 given alone, without bsAb pretargeting is shown in Table 3 (four animals per group in this series). In each Table, the data is presented in terms of percent injected dose per gram of tissue (± standard deviation). Additionally, the biodistribution data for I-125-hMN-14×679-F(ab′)2 and Ga-67-IMP 241, from the same experiment, is reported in terms of tumor-to non-tumor ratio (T/NT) (Tables 4 & 5, for 1–125 and Ga-67, respectively).

in vivo = conditions: nude, mouse, total radioactivity
Procedure: as §1

[2] = tested on: GW39 human colon tumor xenografts; conditions: mouse, in vivo
Procedure: as §1

[3] = Tumor-to-tissue ratio Lg. Intestine
[4] = Tumor-to-tissue ratio Sm. Intestine

With `NC(=O)[C@H](CCCCNC(=O)CNC(=O)CCC(=O)NCCc1cnc[nH]1)NC(=O)[C@@H](Cc1ccc(O)cc1)NC(=O)[C@H](CCCCNC(=O)CNC(=O)CCC(=O)NCCc1cnc[nH]1)NC(=O)[C@H](Cc1ccccc1)NC(=O)CN1CCN(CC(=O)O)CCN(CC(=O)O)CCN(CC(=O)O)CC1` [Ga-67-IMP 241, metal not drawn] ({DOTA}-FK([Gly-Suc-NH(2-(imidazol-4-yl)ethyl)])[dY]K([Gly-Suc-NH(2-(imidazol-4-yl)ethyl)])-NH2) the “Tumor-to-tissue ratio Blood” value [1] was “above 6:1”, the “Tumor-to-tissue ratio Kidney” value [1] was ~3.5:1 and the tissue to tissue ratio at 1 h (in vivo; Tumor-to-tissue ratio Blood) was 1.7 ± 0.8. The tissue to tissue ratio at 2 h (in vivo; Tumor-to-tissue ratio Blood) was 6.1 ± 5, the tissue to tissue ratio at 3 h (in vivo; Tumor-to-tissue ratio Blood) was 8.5 ± 9.5 and the tissue to tissue ratio at 4 h (in vivo; Tumor-to-tissue ratio Blood) was 8.7 ± 4.6. For the same compound, the tissue to tissue ratio at 6 h (in vivo; Tumor-to-tissue ratio Blood) was 12.1 ± 8, the tissue to tissue ratio at 1 h (in vivo; Tumor-to-tissue ratio Bone) was 11.5 ± 11 and the tissue to tissue ratio at 2 h (in vivo; Tumor-to-tissue ratio Bone) was 24.6 ± 15.1. The tissue to tissue ratio at 3 h (in vivo; Tumor-to-tissue ratio Bone) was 17.8 ± 13.7, the tissue to tissue ratio at 4 h (in vivo; Tumor-to-tissue ratio Bone) was 18.3 ± 3.1 and the tissue to tissue ratio at 6 h (in vivo; Tumor-to-tissue ratio Bone) was 53 ± 41.7. The tissue to tissue ratio at 1 h (in vivo; Tumor-to-tissue ratio Kidney) was 2.3 ± 1.6, the tissue to tissue ratio at 2 h (in vivo; Tumor-to-tissue ratio Kidney) was 3.5 ± 2.2 and the tissue to tissue ratio at 3 h (in vivo; Tumor-to-tissue ratio Kidney) was 2.4 ± 1.8. It also gave a tissue to tissue ratio at 4 h (in vivo; Tumor-to-tissue ratio Kidney) of 3.1 ± 1.1, a tissue to tissue ratio at 6 h (in vivo; Tumor-to-tissue ratio Kidney) of 4.3 ± 2.7 and a tissue to tissue ratio at 1 h (in vivo; [3]) of 67.3 ± 44.1. It also gave a tissue to tissue ratio at 2 h (in vivo; [3]) of 74.2 ± 55, a tissue to tissue ratio at 3 h (in vivo; [3]) of 72.7 ± 89 and a tissue to tissue ratio at 4 h (in vivo; [3]) of 56.5 ± 21.7. For the same compound, the tissue to tissue ratio at 6 h (in vivo; [3]) was 162 ± 270, the tissue to tissue ratio at 1 h (in vivo; Tumor-to-tissue ratio Liver) was 8 ± 3.8 and the tissue to tissue ratio at 2 h (in vivo; Tumor-to-tissue ratio Liver) was 15.9 ± 8.9. For the same compound, the tissue to tissue ratio at 3 h (in vivo; Tumor-to-tissue ratio Liver) was 13.1 ± 12, the tissue to tissue ratio at 4 h (in vivo; Tumor-to-tissue ratio Liver) was 16.2 ± 8.6 and the tissue to tissue ratio at 6 h (in vivo; Tumor-to-tissue ratio Liver) was 16 ± 10.5. For the same compound, the tissue to tissue ratio at 1 h (in vivo; Tumor-to-tissue ratio Lungs) was 4.5 ± 1.9, the tissue to tissue ratio at 2 h (in vivo; Tumor-to-tissue ratio Lungs) was 13.1 ± 7.5 and the tissue to tissue ratio at 3 h (in vivo; Tumor-to-tissue ratio Lungs) was 11.4 ± 11.1. For the same compound, the tissue to tissue ratio at 4 h (in vivo; Tumor-to-tissue ratio Lungs) was 13.5 ± 5.9, the tissue to tissue ratio at 6 h (in vivo; Tumor-to-tissue ratio Lungs) was 20.2 ± 12.5 and the tissue to tissue ratio at 1 h (in vivo; [4]) was 18.6 ± 9.1. The tissue to tissue ratio at 2 h (in vivo; [4]) was 27.7 ± 9.1, the tissue to tissue ratio at 3 h (in vivo; [4]) was 35.5 ± 26 and the tissue to tissue ratio at 4 h (in vivo; [4]) was 22 ± 12.7. The tissue to tissue ratio at 6 h (in vivo; [4]) was 47.2 ± 35.9, the tissue to tissue ratio at 1 h (in vivo; Tumor-to-tissue ratio Spleen) was 10.7 ± 7.2 and the tissue to tissue ratio at 2 h (in vivo; Tumor-to-tissue ratio Spleen) was 26.6 ± 28.7. It also gave a tissue to tissue ratio at 3 h (in vivo; Tumor-to-tissue ratio Spleen) of 16.3 ± 13.1, a tissue to tissue ratio at 4 h (in vivo; Tumor-to-tissue ratio Spleen) of 26.1 ± 23.4 and a tissue to tissue ratio at 6 h (in vivo; Tumor-to-tissue ratio Spleen) of 17.4 ± 12.7. It also gave a tissue to tissue ratio at 1 h (in vivo; Tumor-to-tissue ratio Stomach) of 36.7 ± 22.8, a tissue to tissue ratio at 2 h (in vivo; Tumor-to-tissue ratio Stomach) of 52.8 ± 17.6 and a tissue to tissue ratio at 3 h (in vivo; Tumor-to-tissue ratio Stomach) of 73.6 ± 47.4. For the same compound, the tissue to tissue ratio at 4 h (in vivo; Tumor-to-tissue ratio Stomach) was 56.9 ± 36, the tissue to tissue ratio at 6 h (in vivo; Tumor-to-tissue ratio Stomach) was 112 ± 60.7 and the “Clearance when given alone” value [2] was “essentially clears completely within the first hour post-injection”.
